Laboratory results as given in patent US20090298864A1, “Methods for Treating Mild Cognitive Impairment” (The Trustees of Columbia University in the City of New York, priority 2005, published 2009).
Entries after “also recorded” stand apart in the source; their conditions may differ.

Legend:
APP mice = assay: Contextual fear learning (freezing) in APP mouse model of mild cognitive impairment; assay type: in vivo; conditions: single transgenic APP mice, 3-5 months old; rolipram 0.3 mg/kg vs vehicle; freezing measured 24 hours after training; FIG. 1
Protocol: (§1) The effect of rolipram on contextual fear learning in APP mice was determined according to the methods set forth in Gong et al., J Clin Invest. 114(11):1624-34 (2004), which are described briefly as follows:
(§2) Three to five month old single transgenic APP and WT mice were separated into four groups: APP mice treated with vehicle (“APP control group”), APP mice treated with rolipram at 0.3 mg/kg (“APP rolipram group”), WT mice treated with vehicle (“control vehicle group”), and WT mice treated with rolipram at 0.3 mg/kg (“control rolipram group”). 30 minutes after treatment with either vehicle or rolipram, the mice were placed in a conditioning chamber and subjected to a series of electrical shocks to the feet. Animal behavior was evaluated for three types of response to the shocks (flinching, jumping and screaming) and thresholds for various types of responses were determined for each animal
(§3) Mice were placed in the conditioning chamber for about 2 minutes, then an auditory tone was given for about 30 seconds. During the last two seconds of the tone, the mice were given a foot shock. The mice were left in the conditioning chamber for about 30 seconds, then were returned to their home cages. […]
(§4) To evaluate contextual fear learning, freezing was measured for 5 consecutive minutes in the conditioning chamber 24 hours after training.

WT mice = assay: Contextual fear learning (freezing) in WT control mice; assay type: in vivo, mouse; conditions: rolipram 0.3 mg/kg vs vehicle, freezing measured 24 hours after training, FIG. 1
Protocol: as §1, §2, §3, §4

[1] = tested on: mouse model of Alzheimer's disease; conditions: brief treatment of a mouse model of Alzheimer's disease; cited from earlier work

COc1ccc(C2CNC(=O)C2)cc1OC1CCCC1 (stereo not drawn) [rolipram]
freezing in the contextual fear conditioning test (contextual fear learning) (APP mice): much higher incidence of freezing; also recorded: improved contextual fear learning | freezing responses in the contextual fear conditioning test (WT mice): no significant difference | memory (long-term potential and contextual learning) [1]: improves memory in both long-term potential and contextual learning
